The target of one assay is T1, human CA-IX (Homo sapiens, UniProt Q16790).
T1 construct: purchased Acro CA9-H82E3
Put plainly: Surface Plasmon Resonance (SPR) binding kinetics to recombinant human CA-IX (Biacore 8K, single-cycle kinetics, 1:1 binding model). The method in brief: (§1)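 Recombinant human CA-IX or CA-XII captured on streptavidin chips (1200-1800 RU) in PBS-P+, pH 7.4. Single-cycle kinetics over 9 analyte concentrations (100-0.39 nM) with 1% DMSO, 120 s association, 1200 s dissociation, 25° C. Reference- and DMSO-corrected curves fit to 1:1 model for on/off rates.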

The target of the next assay is T2, human CA-XII (Homo sapiens, UniProt O43570).
T2 construct: purchased Creative BioMart CA12-261H
T2 sequence (O43570 25-354): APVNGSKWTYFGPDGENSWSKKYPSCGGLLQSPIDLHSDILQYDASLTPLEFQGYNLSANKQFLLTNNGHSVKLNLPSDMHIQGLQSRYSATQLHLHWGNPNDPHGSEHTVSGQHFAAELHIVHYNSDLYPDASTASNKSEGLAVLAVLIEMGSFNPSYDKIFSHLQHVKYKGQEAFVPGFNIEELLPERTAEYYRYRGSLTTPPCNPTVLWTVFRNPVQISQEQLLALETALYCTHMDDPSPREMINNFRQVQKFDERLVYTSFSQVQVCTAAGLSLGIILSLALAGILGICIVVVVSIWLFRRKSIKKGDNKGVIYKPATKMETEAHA
Put plainly: Surface Plasmon Resonance (SPR) binding kinetics to recombinant human CA-XII (Biacore 8K, single-cycle kinetics, 1:1 binding model). A digest of the protocol: as §1

The mark [1] stands for this setting: read-out: CAIX KD; Chelated Metal: Lu-175; SPR, 25° C., pH 7.4.
Setting [2] is: read-out: CAXII KD, Chelated Metal: Lu-175, 25° C., pH 7.4.
[3] abbreviates: Chelated Metal: Lu-175; SPR, 25° C., pH 7.4; read-out: CAIX KD.
[4] abbreviates: Chelated Metal: Lu-175, 25° C., pH 7.4, read-out: CAXII KD.

Where two headings read alike, the source gives them in different places.

Turning to `CC(CCCC(=O)N1CCC(C(N)=O)(C(=O)NCC(=O)NC2(C(=O)NCCn3nnc(C45CC(C(=O)Nc6nnc(S(N)(=O)=O)s6)(C4)C5)c3C(=O)O)CCN(C(=O)CN3CCN(CC(=O)O)CCN(CC(=O)O)CCN(CC(=O)O)CC3)CC2)CC1)(c1ccc(O)cc1)c1ccc(O)cc1.[Lu+3]` [Compound 135], the Kd – broadly, the free concentration of one partner at which half of the binding sites on the other are occupied at equilibrium, for simple one-to-one binding – is < 1 nM at human CA-IX (setting [1]) and > 10 nM on human CA-XII (setting [2]).
`CC(CCC(=O)N[C@@H](CC(=O)N[C@@H](CC(=O)N1CCN(C(=S)Nc2ccc3c(c2)OCCN(Cc2cccc(C(=O)O)n2)CCOCCOCCN(Cc2cccc(C(=O)O)n2)CCO3)C[C@H]1C(=O)NCCn1cc(C23CC(C(=O)Nc4nnc(S(N)(=O)=O)s4)(C2)C3)nn1)C(=O)O)C(=O)O)(c1ccc(O)cc1)c1ccc(O)cc1` [Compound 130]: the Kd at human CA-IX (Chelated Metal: None; SPR, 25° C., pH 7.4; read-out: CAIX KD) is < 1 nM; at human CA-XII (Chelated Metal: None, 25° C., pH 7.4, read-out: CAXII KD), 2.5 to 10 nM. Further, the “Ratio (CAXII/CAIX)” value on human CA-IX (KD ratio CAXII/CAIX; Chelated Metal: None) was “*** (10 < *** ≤ 50)”.
Regarding `CC(CCCC(=O)N1CCC(C(=O)O)(C(=O)NCC(=O)N[C@@H](CCCCn2cc(C34CCC(C(=O)Nc5nnc(S(N)(=O)=O)s5)(CC3)CC4)nn2)C(=O)NCCOCCOCCNC(=O)CN2CCN(CC(=O)O)CCN(CC(=O)O)CCN(CC(=O)O)CC2)CC1)(c1ccc(O)cc1)c1ccc(O)cc1.[Lu+3]` [Compound 102.5], the equilibrium dissociation constant (Kd) at human CA-IX (setting [3]) is < 1 nM; on human CA-XII (setting [4]), 2.5 to 10 nM.
On the same counts, the results for `CC(CCCC(=O)N1CCC(C(=O)O)(C(=O)NCC(=O)N2CCN(C(=O)CN3CCN(CC(=O)O)CCN(CC(=O)O)CCN(CC(=O)O)CC3)C[C@@H]2C(=O)NCCn2cc(C34CC(C(=O)Nc5nnc(S(N)(=O)=O)s5)(C3)C4)nn2)CC1)(c1ccc(O)cc1)c1ccc(O)cc1.[Lu+3]` [Compound 107.12] are 1 to 2.5 nM and > 10 nM.
Consider `CC(CCC(=O)N[C@@H](CC(=O)N[C@@H](CC(=O)N1CCN(C(=O)CC[C@H](C(=O)O)N2CCN(CC(=O)O)CCN(CC(=O)O)CCN(CC(=O)O)CC2)C[C@H]1C(=O)NCCn1cc(C23CC(C(=O)Nc4nnc(S(N)(=O)=O)s4)(C2)C3)nn1)C(=O)O)C(=O)O)(c1ccc(O)cc1)c1ccc(O)cc1.[Lu+3]` [Compound 127], for which the Kd at human CA-IX (setting [3]) is < 1 nM; on human CA-XII (setting [4]) it was > 10 nM.
Take `CC(C)(CCCC(=O)N1CCC(C(N)=O)(C(=O)NCC(=O)N2CCN(C(=O)CN3CCN(CC(=O)O)CCN(CC(=O)O)CCN(CC(=O)O)CC3)C[C@H]2C(=O)NCCn2cc(C34CC(C(=O)Nc5nnc(S(N)(=O)=O)s5)(C3)C4)nn2)CC1)c1ccc(O)cc1.[Lu+3]` [Compound 133]: the Kd on human CA-IX (setting [1]) is < 1 nM; at human CA-XII (setting [2]), > 10 nM.
For the compound `CC(CCCC(=O)N1CCC(C(N)=O)(C(=O)NCC(=O)N2CCN(C(=O)CCOCCOCCOCCOCCOCCOCCOCCOCCNC(=O)CN3CCN(CC(=O)O)CCN(CC(=O)O)CCN(CC(=O)O)CC3)C[C@H]2C(=O)NCCn2cc(C34CC(C(=O)Nc5nnc(S(N)(=O)=O)s5)(C3)C4)nn2)CC1)(c1ccc(O)cc1)c1ccc(O)cc1.[Lu+3]` [Compound 129.1], the Kd was < 1 nM at human CA-IX (setting [3]) and > 10 nM at human CA-XII (setting [4]).
As for `CC(CCC(=O)N[C@H](CC(=O)N[C@H](CC(=O)N1CCN(C(=O)CN2CCN(CC(=O)O)CCN(CC(=O)O)CCN(CC(=O)O)CC2)C[C@H]1C(=O)NCCn1cc(C23CC(C(=O)Nc4nnc(S(N)(=O)=O)s4)(C2)C3)nn1)C(=O)O)C(=O)O)(c1ccc(O)cc1)c1ccc(O)cc1.[Lu+3]` [Compound 107.21], the dissociation constant (Kd) at human CA-IX (setting [3]) was 1 to 2.5 nM; on human CA-XII (setting [4]), > 10 nM.
On the same counts, the results for `NS(=O)(=O)c1nnc(NC(=O)C23CC(c4cn(CCNC(=O)[C@@H]5CN(C(=O)CN6CCN(CC(=O)O)CCN(CC(=O)O)CCN(CC(=O)O)CC6)CCN5C(=O)C[C@H](NC(=O)C[C@H](NC(=O)CCCc5ccc(Cl)cc5)C(=O)O)C(=O)O)nn4)(C2)C3)s1.[Lu+3]` [Compound 109.37] are < 1 nM and 2.5 to 10 nM.
In the same order, the values of `CC(CCC(=O)N1CCOC[C@H]1C(=O)N[C@@H](CC(=O)N1CCN(C(=O)CN2CCN(CC(=O)O)CCN(CC(=O)O)CCN(CC(=O)O)CC2)C[C@@H]1C(=O)NCCn1cc(C23CC(C(=O)Nc4nnc(S(N)(=O)=O)s4)(C2)C3)nn1)C(N)=O)(c1ccc(O)cc1)c1ccc(O)cc1.[Lu+3]` [Compound 107.19] are 1 to 2.5 nM and > 10 nM.
As to `NS(=O)(=O)c1nnc(NC(=O)C23CC(c4cn(CCNC(=O)[C@@H]5CN(C(=O)CN6CCN(CC(=O)O)CCN(CC(=O)O)CCN(CC(=O)O)CC6)CCN5C(=O)C[C@H](Nc5ncc(C(=O)NCc6ccc(C7CC7)cn6)cn5)C(=O)O)nn4)(C2)C3)s1.[Lu+3]` [Compound 111.2], the results for the Kd on human CA-IX (setting [3]) and on human CA-XII (setting [4]) were 2.5 to 10 nM and > 10 nM, respectively.
On the same counts, the results for `CC1(c2ccc(C(=O)N[C@@H](CC(=O)N[C@@H](CC(=O)N3CCN(C(=O)CN4CCN(CC(=O)O)CCN(CC(=O)O)CCN(CC(=O)O)CC4)C[C@H]3C(=O)NCCn3cc(C45CC(C(=O)Nc6nnc(S(N)(=O)=O)s6)(C4)C5)nn3)C(=O)O)C(=O)O)cc2)CC1.[Lu+3]` [Compound 109.22] are 1 to 2.5 nM and 2.5 to 10 nM.
In the case of `CC(CCC(=O)N[C@@H](CC(=O)N[C@@H](CC(=O)N1CCN(C(=O)OCCOCCNC(=O)CN2CCN(CC(=O)O)CCN(CC(=O)O)CCN(CC(=O)O)CC2)C[C@@H]1CCCCn1cc(CCCC(=O)Nc2nnc(S(N)(=O)=O)s2)nn1)C(=O)O)C(=O)O)(c1ccc(O)cc1)c1ccc(O)cc1.[Lu+3]` [Compound 124], the Kd at human CA-IX (setting [1]) and at human CA-XII (setting [2]) was 2.5 to 10 nM in each case.
For the compound `CC(CCC(=O)N[C@@H](CC(=O)N[C@@H](CC(=O)N1CCN(C(=O)CN2CCN(CC(=O)O)CCN(CC(=O)O)CCN(CC(=O)O)CC2)C[C@H]1C(=O)NCCn1nnc(C23CC(C(=O)Nc4nnc(S(N)(=O)=O)s4)(C2)C3)c1C(=O)O)C(=O)O)C(=O)O)(c1ccc(O)cc1)c1ccc(O)cc1.[Lu+3]` [Compound 107.60], the Kd was < 1 nM at human CA-IX (setting [3]) and 2.5 to 10 nM on human CA-XII (setting [4]).
In the same order, the values of `CC(CCC(=O)N[C@@H](CC(=O)N[C@@H](CC(=O)N[C@@H](CCCCn1cc(C23CCC(C(=O)Nc4nnc(S(N)(=O)=O)s4)(CC2)C3)nn1)C(=O)N1CC2(CN(C(=O)CN3CCN(CC(=O)O)CCN(CC(=O)O)CCN(CC(=O)O)CC3)C2)C1)C(=O)O)C(=O)O)(c1ccc(O)cc1)c1ccc(O)cc1.[Lu+3]` [Compound 100.10] are < 1 nM and < 1 nM.
In the same order, the values of `CC(CCCC(=O)N1CCC(C(N)=O)(C(=O)NCC(=O)NC2(C(=O)NCCn3cc(C45CC(C(=O)Nc6nnc(S(N)(=O)=O)s6)(C4)C5)nn3)CCN(C(=O)CCOCCOCCOCCOCCOCCOCCOCCOCCNC(=O)CN3CCN(CC(=O)O)CCN(CC(=O)O)CCN(CC(=O)O)CC3)CC2)CC1)(c1ccc(O)cc1)c1ccc(O)cc1.[Lu+3]` [Compound 129.5] are < 1 nM and > 10 nM.
On to `CC(CCC(=O)N[C@@H](CC(=O)N[C@@H](CNC(=O)N1CCN(C(=O)CN2CCN(CC(=O)O)CCN(CC(=O)O)CCN(CC(=O)O)CC2)C[C@H]1C(=O)NCCn1cc(C23CC(C(=O)Nc4nnc(S(N)(=O)=O)s4)(C2)C3)nn1)C(=O)O)C(=O)O)(c1ccc(O)cc1)c1ccc(O)cc1.[Lu+3]` [Compound 107.55], for which the Kd on human CA-IX (setting [3]) is < 1 nM; at human CA-XII (setting [4]) it was 2.5 to 10 nM.
On the same counts, the results for `CC(CCC(=O)N[C@@H](CC(=O)N[C@@H](CC(=O)N[C@@H](CCCCn1cc(C23CCC(C(=O)Nc4nnc(S(N)(=O)=O)s4)(CC2)C3)nn1)C(=O)N1CC(NC(=O)CN2CCN(CC(=O)O)CCN(CC(=O)O)CCN(CC(=O)O)CC2)C1)C(=O)O)C(=O)O)(c1ccc(O)cc1)c1ccc(O)cc1.[Lu+3]` [Compound 100.11] are < 1 nM and < 1 nM.
On the same counts, the results for `NS(=O)(=O)c1nnc(NC(=O)C23CC(c4cn(CCNC(=O)[C@@H]5CN(C(=O)CN6CCN(CC(=O)O)CCN(CC(=O)O)CCN(CC(=O)O)CC6)CCN5C(=O)C[C@H](NC(=O)C[C@H](NC(=O)Cn5nc(-c6ccc(O)cc6)c6ccc(O)cc65)C(=O)O)C(=O)O)nn4)(C2)C3)s1.[Lu+3]` [Compound 109.34] are < 1 nM and 2.5 to 10 nM.
In the same order, the values of `NS(=O)(=O)c1nnc(NC(=O)C23CCC(c4cn(CCNC(=O)[C@@H]5CN(C(=O)CN6CCN(CC(=O)O)CCN(CC(=O)O)CCN(CC(=O)O)CC6)CCN5C(=O)CC[C@H](NC(=O)C[C@H](NC(=O)CCCc5ccc(O)cc5)C(=O)O)C(=O)O)nn4)(CC2)CC3)s1.[Lu+3]` [Compound 109.42] are < 1 nM and < 1 nM.
Consider `CC(CCC(=O)N[C@@H](CC(=O)N[C@@H](CC(=O)N1CCN(C(=O)CN2CCN(CC(=O)O)CCN(CC(=O)O)CCN(CC(=O)O)CC2)C[C@H]1C(=O)NCCn1cc(C23CC(c4cn5nc(S(N)(=O)=O)sc5n4)(C2)C3)nn1)C(=O)O)C(=O)O)(c1ccc(O)cc1)c1ccc(O)cc1.[Lu+3]` [Compound 107.27], for which the Kd on human CA-IX (setting [3]) and at human CA-XII (setting [4]) was < 1 nM throughout.
On to `CC(CCC(=O)N[C@@H](CC(=O)N[C@@H](CC(=O)NC1(CCCCn2cc(CCCC(=O)Nc3nnc(S(N)(=O)=O)s3)nn2)CCN(C(=O)OCCOCCNC(=O)CN2CCN(CC(=O)O)CCN(CC(=O)O)CCN(CC(=O)O)CC2)CC1)C(=O)O)C(=O)O)(c1ccc(O)cc1)c1ccc(O)cc1.[Lu+3]` [Compound 116.2], for which the Kd fell in the range of 1 to 2.5 nM on human CA-IX (setting [3]) and 2.5 to 10 nM on human CA-XII (setting [4]).
On the same counts, the results for `NS(=O)(=O)c1nnc(NC(=O)C23CC(c4cn(CCNC(=O)[C@@H]5CN(C(=O)CN6CCN(CC(=O)O)CCN(CC(=O)O)CCN(CC(=O)O)CC6)CCN5C(=O)C[C@H](Nc5ncc(C(=O)NCc6n[nH]c7ccccc67)cn5)C(=O)O)nn4)(C2)C3)s1.[Lu+3]` [Compound 111.10] are 2.5 to 10 nM and > 10 nM.

(Values after US20260325685A1, “Radiopharmaceutical Compositions Targeting Carbonic Anhydrase IX and Uses Thereof” (RayzeBio, Inc., priority 2023, published 2026).)
